Results published in ChEMBL document CHEMBL1130170, “Orally active trifluoromethyl ketone inhibitors of human leukocyte elastase” (J Med Chem, 1997).
Where a SMILES comes first, the peptide text is derived from it. The star is where a group is joined. CF3 = FC(F)(F)*; Moc = COC(=O)*

Legend:
[1] = Intravenous integrated area under the concentration vs time curve, for compound in dog plasma; assay type: ADME, organism-based, Canis lupus familiaris
[2] = Maximum concentration of the unchanged compound in hamster plasma, recorded in the period 0-6 hr post dose.; assay type: ADME, organism-based; details: cricetinae
[3] = Bioavailability in hamster; assay type: ADME, organism-based, Cricetulus griseus; details: chinese hamster, in vivo
[4] = Bioavailability in rat; assay type: ADME, organism-based; details: in vivo
[5] = Time of maximum concentration of compound in dog plasma.; assay type: ADME, organism-based, Canis lupus familiaris
[6] = Time of maximum concentration of compound in hamster plasma.; assay type: ADME, organism-based; details: cricetinae
[7] = Half-life of compound in plasma of hamster; assay type: ADME, organism-based; details: cricetinae
[8] = Half-life of compound in plasma of rat; assay type: ADME, organism-based
[9] = target: T1, Angiotensin-converting enzyme (Oryctolagus cuniculus, UniProt P12822); test: Binding affinity for rabbit lung Angiotensin I converting enzyme; No inhibition at 188 uM (highest concentration tested)
T1 sequence (P12822 whole entry): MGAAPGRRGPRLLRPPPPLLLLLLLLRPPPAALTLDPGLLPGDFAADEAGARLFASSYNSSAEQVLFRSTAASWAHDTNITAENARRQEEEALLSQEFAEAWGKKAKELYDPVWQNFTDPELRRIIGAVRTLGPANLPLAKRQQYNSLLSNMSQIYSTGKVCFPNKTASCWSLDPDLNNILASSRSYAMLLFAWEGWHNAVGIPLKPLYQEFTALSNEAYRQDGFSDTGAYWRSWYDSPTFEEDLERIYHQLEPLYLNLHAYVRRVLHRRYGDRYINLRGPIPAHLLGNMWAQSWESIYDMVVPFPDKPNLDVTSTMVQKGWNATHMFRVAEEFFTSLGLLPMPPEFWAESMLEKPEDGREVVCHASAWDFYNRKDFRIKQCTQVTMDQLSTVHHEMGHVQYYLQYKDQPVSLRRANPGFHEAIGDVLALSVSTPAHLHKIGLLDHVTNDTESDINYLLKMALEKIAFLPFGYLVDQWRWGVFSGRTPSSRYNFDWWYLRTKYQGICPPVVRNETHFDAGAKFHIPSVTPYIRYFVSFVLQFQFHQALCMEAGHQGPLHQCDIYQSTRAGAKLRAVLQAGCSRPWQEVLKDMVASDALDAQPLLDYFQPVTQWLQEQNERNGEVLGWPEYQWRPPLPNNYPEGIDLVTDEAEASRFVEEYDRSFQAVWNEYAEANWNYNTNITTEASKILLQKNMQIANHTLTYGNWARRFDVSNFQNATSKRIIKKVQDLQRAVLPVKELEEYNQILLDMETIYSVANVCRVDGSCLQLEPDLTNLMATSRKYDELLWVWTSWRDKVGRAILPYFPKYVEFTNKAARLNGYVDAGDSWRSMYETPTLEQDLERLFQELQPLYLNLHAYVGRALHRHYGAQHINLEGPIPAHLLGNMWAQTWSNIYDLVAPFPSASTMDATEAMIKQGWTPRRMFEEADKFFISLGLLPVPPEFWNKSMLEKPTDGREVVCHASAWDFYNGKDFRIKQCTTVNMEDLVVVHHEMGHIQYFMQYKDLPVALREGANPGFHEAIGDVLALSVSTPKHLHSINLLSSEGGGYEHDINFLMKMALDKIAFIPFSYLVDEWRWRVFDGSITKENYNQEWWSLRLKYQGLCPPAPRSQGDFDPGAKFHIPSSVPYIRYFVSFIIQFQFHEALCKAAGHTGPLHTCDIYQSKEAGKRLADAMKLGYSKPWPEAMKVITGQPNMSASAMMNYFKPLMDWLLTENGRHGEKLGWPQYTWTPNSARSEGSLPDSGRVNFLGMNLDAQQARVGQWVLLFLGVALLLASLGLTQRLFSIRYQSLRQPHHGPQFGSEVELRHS

[10] = target: Procathepsin L (Bos taurus, UniProt P25975); test: Binding affinity for bovine spleen cathepsin L; No inhibition at 188 uM (highest concentration tested)
[11] = tested on: Cricetinae gen. sp.; test: Effective dose in the Acute Hemarrhagic Assay model after i.v. administration; assay type: functional, Cricetulus griseus; details: iv
[12] = target: T2, Papain (Carica papaya, UniProt P00784); test: Binding affinity for papaya papain; No inhibition at 188 uM (highest concentration tested)
T2 sequence (P00784 whole entry): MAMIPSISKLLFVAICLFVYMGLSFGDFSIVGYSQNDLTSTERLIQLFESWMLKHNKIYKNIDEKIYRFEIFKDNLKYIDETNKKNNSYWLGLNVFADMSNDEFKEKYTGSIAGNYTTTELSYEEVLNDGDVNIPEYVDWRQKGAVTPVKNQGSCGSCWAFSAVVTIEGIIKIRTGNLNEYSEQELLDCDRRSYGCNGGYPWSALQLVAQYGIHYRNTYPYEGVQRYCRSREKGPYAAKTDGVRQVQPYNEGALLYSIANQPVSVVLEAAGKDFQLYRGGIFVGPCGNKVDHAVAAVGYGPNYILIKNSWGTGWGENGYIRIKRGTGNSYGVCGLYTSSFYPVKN

[13] = Intravenous integrated area under the concentration vs time curve, for compound in rat plasma; assay type: ADME, organism-based
[14] = target: Prothrombin (Homo sapiens, UniProt P00734); test: Binding affinity for human plasma thrombin; No inhibition at 188 uM (highest concentration tested); assay type: cell-free

Sequence of Procathepsin L (P25975 whole entry): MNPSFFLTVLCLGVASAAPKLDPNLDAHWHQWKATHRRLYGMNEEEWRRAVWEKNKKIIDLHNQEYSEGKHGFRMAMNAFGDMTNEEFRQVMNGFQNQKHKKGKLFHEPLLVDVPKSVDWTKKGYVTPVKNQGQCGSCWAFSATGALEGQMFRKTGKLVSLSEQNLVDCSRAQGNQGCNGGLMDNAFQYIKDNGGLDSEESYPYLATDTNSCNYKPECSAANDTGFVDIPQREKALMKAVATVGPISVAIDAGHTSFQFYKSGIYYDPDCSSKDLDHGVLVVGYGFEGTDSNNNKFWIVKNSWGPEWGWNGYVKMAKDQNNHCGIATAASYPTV

COc1ccc(C(=O)N[C@H](C(=O)N2CCC[C@H]2C(=O)N[C@H](C(=O)C(F)(F)F)C(C)C)C(C)C)cc1 (stereo in doubt; 1k)
AUC [1]: 3180 ng·h/mL | Cmax [2]: 373 ng/mL | bioavailability [3]: 26% | bioavailability [4]: 82% | Tmax [5]: 30 min | Tmax [6]: 30 min | half-life [7]: 72 min | half-life [8]: 49.2 min | Ki [9]: No inhibition | Ki [10]: No inhibition | ED50 [11]: 0.59 mg/kg | Ki [12]: No inhibition | AUC [13]: 1700 ng·h/mL | Ki [14]: No inhibition

COC(=O)N[C@H](C(=O)N1CCC[C@H]1C(=O)N[C@H](C(=O)C(F)(F)F)C(C)C)C(C)C (Moc-Val-Pro-Val-CF3)
AUC [1]: 9370 ng·h/mL | Cmax [2]: 1460 ng/mL | bioavailability [3]: 75% | bioavailability [4]: 84% | Tmax [5]: 19.8 min | Tmax [6]: 15 min | half-life [7]: 120 min | half-life [8]: 78 min | Ki [9]: No inhibition | Ki [10]: No inhibition | ED50 [11]: 0.51 mg/kg | Ki [12]: No inhibition | AUC [13]: 6540 ng·h/mL | Ki [14]: No inhibition
